Data on 19 compounds can be found in patent US11179389B2, “Purine inhibitors of human phosphatidylinositol 3-kinase delta” (Merck Sharp & Dohme Corp., priority 2017, dated 2021).

Where only a bound is given, the exact number is not on record here.

In test [1] the target is PI3Kalpha (Homo sapiens (Human), UniProt P42336). Put plainly: HTRF PI3K biochemical assay, alpha isoform (for selectivity ratio). Conditions: ratio PI3K-alpha IC50 value / PI3K-delta IC50 value. The source says: (§1) HTRF PI3K Biochemical Assay to Measure Intrinsic Potency of Compound Inhibitors
PI3Kalpha, sequence (P42336 whole entry, canonical isoform): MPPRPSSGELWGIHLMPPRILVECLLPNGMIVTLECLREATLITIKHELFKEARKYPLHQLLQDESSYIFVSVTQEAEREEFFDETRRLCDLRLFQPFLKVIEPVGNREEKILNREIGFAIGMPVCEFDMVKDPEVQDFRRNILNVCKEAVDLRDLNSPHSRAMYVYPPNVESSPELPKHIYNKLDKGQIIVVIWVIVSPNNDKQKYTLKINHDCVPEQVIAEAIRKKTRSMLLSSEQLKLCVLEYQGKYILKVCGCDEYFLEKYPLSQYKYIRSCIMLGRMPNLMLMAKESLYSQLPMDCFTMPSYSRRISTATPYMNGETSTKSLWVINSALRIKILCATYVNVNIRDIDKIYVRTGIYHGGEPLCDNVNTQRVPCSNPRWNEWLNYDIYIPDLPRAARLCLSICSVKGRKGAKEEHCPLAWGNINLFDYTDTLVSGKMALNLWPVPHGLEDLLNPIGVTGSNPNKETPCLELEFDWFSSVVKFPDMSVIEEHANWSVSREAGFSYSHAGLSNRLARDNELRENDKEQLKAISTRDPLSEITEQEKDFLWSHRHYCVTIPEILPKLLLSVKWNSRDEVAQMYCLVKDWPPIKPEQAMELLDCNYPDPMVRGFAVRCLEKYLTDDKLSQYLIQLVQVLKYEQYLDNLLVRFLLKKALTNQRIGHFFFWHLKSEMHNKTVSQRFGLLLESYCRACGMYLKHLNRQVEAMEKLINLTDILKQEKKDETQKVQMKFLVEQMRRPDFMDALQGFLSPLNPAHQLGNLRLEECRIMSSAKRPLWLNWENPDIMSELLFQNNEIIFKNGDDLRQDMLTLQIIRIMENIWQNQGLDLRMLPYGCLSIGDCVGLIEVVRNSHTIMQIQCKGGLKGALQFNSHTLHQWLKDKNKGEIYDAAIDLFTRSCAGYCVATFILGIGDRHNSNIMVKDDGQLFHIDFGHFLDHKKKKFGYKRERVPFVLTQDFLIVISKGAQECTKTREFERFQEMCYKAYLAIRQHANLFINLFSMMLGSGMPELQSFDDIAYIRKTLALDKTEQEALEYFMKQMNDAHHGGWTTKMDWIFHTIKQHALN
PI3Kalpha, sequence (P27986 whole entry partner, canonical isoform): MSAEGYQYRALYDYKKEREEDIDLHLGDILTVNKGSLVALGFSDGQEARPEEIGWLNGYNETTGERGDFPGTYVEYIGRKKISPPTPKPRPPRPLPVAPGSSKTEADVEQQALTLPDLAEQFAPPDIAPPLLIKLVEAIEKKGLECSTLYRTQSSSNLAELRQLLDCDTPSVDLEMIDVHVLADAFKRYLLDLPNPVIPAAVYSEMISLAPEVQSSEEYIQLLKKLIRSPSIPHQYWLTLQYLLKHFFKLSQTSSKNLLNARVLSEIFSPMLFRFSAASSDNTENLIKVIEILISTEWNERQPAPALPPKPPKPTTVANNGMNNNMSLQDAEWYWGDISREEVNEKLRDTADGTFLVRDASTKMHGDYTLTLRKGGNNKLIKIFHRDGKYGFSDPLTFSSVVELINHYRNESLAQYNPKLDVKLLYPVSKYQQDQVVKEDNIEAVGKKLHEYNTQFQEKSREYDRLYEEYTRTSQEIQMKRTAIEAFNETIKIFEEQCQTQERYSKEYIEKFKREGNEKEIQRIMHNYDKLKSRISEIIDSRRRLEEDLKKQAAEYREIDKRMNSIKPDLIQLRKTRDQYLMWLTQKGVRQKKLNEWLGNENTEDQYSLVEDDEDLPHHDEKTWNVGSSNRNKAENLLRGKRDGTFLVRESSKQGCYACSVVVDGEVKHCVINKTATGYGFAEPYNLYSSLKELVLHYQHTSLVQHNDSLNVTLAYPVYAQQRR
(§2) The PI3-Kinase biochemical assays were developed to measure the intrinsic potency and compound dependent inhibition of the alpha, beta, delta, and gamma PI3K isoform enzymes. This assay was developed and further optimized from a kit produced by Upstate (Millipore catalog #33-047) (Millipore Sigma. Billerica Mass., USA) and has been configured for high throughput screening (HTS) and structure-activity relationship (SAR) screening. Briefly, this procedure exploits the exquisite specificity and high affinity binding of enzyme reaction […] phosphatidyl(3,4,5)triphosphate (PIP3) to the GRP1 pleckstrin homology (PH) domain to generate the signal. In the absence of PIP3, an HTRF (Homogeneous Time-Resolved Fluorescence energy transfer) complex is formed consisting of europium (Eu)-labeled anti-GST, GSTtagged GRP1-PH domain, biotin-PIP3 (biotinylated-PIP3) and streptavidin conjugated APC (Allophycocyanin). The native PIP3 produced by PI3-Kinase activity disrupts in a competitive manner the biotin-PIP3 from the pleckstrin homology (PH) domain, resulting in the loss of energy transfer (HTRF complex) and a decrease in the signal. The format of this assay is the same for all 4 isoforms of PI3K; the differences lie in the concentration of enzyme used to achieve robust assay window. The alpha, beta, and delta assays are run at 0.5, 1, and 0.3 nM enzymes and the gamma assay is run at 5 nM enzyme. The ATP concentration is 100 uM in the alpha, beta, and delta assays and 50 uM adenosine triphosphate (ATP) in the gamma assay. All reactions are run at 5 uM PIP2.
(§3) Compounds are serially diluted (3-fold in 100% DMSO) across a 384-well polypropylene source plated from column 3 to column 12 and column 13 to column 22, to yield 10 concentration dose response for each test compound. Columns 1, 2, 23 and 24 contain either only DMSO or pharmacological known control inhibitor. Once titrations are made, 2.5 nL of the compounds on 384 well plates are reformatted and transferred by acoustic dispense in quadruplicates to a 1536 assay plate (Greiner) to assay across all four PI3K isoform enzymes.
(§4) The PI3-Kinase biochemical assay was optimized using the HTRF kit provided by Upstate (Millipore). The assay kit contains six reagents: 1) 4×Reaction Buffer; 2) native PIP2 (substrate); 3) Stop (EDTA); 4) Detection Mix A (Streptavidin-APC); 5) Detection Mix B (Eu-labeled Anti-GST plus GST-tagged PH-domain): 6) Detection Mix C. In addition, the following items were obtained or purchased; PI3Kinase (catalog #'s alpha 14-602, beta 14-603, gamma 14-558 and delta 14-604 from Upstate Biotechnology now EMD Millipore, Mahopac, N.Y., USA), dithiothreitol (Sigma-Aldrich Corp. (St. Louis, Mo., USA) Catalog #D-5545), Adenosine-5′ triphosphate (InVitrogen (Waltham, Mass., USA), Cat#AS001 Å), native PIP3 (PI(3,4,5)P3, diC8, H^+, CELLSIGNALS, INC., (Columbus, Ohio, USA) Cat #907) DMSO ((Sigma-Aldrich Corp. (St. Louis. Mo., USA) Catalog #472301).
(§5) PI3Kinase Reaction Buffer is prepared by dilution the stock 1:4 with de-ionized water. DTT (DL-Dithiothreitol), phosphatidylinositol 4,5-bisphosphate (PIP2) and Biotin-PIP3 were added to 1536 assay plate at a final concentration of 5 mM, […] and 25 nM on the day of use. Enzyme addition and compound pre-incubation are initiated by the addition of 1.25 ul of PI3K (at twice its final concentration) in the 1× reaction buffer to all wells using a BioRaptor™. Plates are incubated at room temperature for 15 minutes. Reactions are initiated by addition of 1.25 ul of 2× substrate solution (PIP2 and ATP in 1× reaction buffer) using BioRaptor™. Plates are incubated in humidified chamber at room temperature for one hour. Reactions are quenched by addition of 0.625 uL of stop solution to all wells using the BioRaptor™. […]
(Time-resolved FRET reads energy transfer from a long-lived donor to a nearby acceptor.)

Test [2] deals with PI3Kdelta (Homo sapiens (Human), UniProt O00329). Put plainly: HTRF PI3K biochemical assay, delta isoform. As to conditions: 0.3 nM enzyme, 100 uM ATP, 5 uM PIP2, form screened per table (Neutral or TFA salt).
PI3Kdelta, sequence (O00329 whole entry, canonical isoform): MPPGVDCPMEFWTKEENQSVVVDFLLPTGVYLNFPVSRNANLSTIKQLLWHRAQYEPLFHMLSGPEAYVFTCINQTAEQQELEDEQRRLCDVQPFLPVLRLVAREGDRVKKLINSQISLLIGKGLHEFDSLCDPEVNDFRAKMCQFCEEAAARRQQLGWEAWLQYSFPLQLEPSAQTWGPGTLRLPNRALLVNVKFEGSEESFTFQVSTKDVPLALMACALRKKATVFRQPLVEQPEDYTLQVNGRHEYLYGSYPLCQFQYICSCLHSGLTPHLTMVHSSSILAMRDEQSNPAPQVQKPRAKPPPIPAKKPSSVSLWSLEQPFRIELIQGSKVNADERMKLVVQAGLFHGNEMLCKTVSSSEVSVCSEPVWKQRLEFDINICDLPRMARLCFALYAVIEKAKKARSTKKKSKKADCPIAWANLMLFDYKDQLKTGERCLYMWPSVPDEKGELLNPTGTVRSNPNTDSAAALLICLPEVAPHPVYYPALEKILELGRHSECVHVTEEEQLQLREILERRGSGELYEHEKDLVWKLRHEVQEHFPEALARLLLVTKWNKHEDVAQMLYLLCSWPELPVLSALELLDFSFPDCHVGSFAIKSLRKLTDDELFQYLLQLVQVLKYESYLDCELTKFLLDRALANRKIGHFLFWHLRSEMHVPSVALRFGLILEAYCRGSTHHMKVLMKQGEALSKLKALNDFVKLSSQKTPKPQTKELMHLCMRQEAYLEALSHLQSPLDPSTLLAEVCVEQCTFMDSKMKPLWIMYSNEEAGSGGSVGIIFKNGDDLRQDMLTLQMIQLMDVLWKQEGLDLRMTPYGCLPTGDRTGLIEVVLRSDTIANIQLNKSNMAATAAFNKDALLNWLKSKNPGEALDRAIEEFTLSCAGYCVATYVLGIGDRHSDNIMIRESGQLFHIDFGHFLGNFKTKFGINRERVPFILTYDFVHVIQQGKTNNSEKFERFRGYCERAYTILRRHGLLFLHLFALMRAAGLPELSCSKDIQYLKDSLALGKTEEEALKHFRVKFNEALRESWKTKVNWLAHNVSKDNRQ
PI3Kdelta, sequence (P27986 whole entry partner, canonical isoform): as the sequence (P27986 whole entry partner, canonical isoform) above
Description: as §1, §2, §3, §4, §5

As for `Cn1cc(-c2nc(N3CCC4(CC3)NC(=O)OC4CC3CC3)cnc2C#N)cn1` (single isomer, unassigned) [Compound 1-7, 5-[4-(cyclopropylmethyl)-2-oxo-3-oxa-1,8-diazaspiro[4.5]dec-8-yl]-3-(1-methyl-1H-pyrazol-4-yl)pyrazine-2-carbonitrile], the “Selectivity versus PI3Kalpha” value in test [1] was over 10. Moreover, the IC50 (usually the concentration at which inhibition is half-maximal) in test [2] was found to be 55 nM.

Take `CCC1C(=O)NCC12CCN(c1cnc(C#N)c(-c3cnn(C)c3)n1)CC2` (single isomer, unassigned) [Compound 1-8, 5-(4-ethyl-3-oxo-2,8-diazaspiro[4.5]dec-8-yl)-3-(1-methyl-1H-pyrazol-4-yl)pyrazine-2-carbonitrile]: the “Selectivity versus PI3Kalpha” value in test [1] was over 10. Besides, the IC50 in test [2] is 60 nM.

`CC(C)CC1OC(=O)NCC12CCN(c1cnc(C#N)c(-c3cnn(C)c3)n1)CC2` (single isomer, unassigned) [Compound 1-10, 5-[1-(2-methylpropyl)-3-oxo-2-oxa-4,9-diazaspiro[5.5]undec-9-yl]-3-(1-methyl-1H-pyrazol-4-yl)pyrazine-2-carbonitrile]: the “Selectivity versus PI3Kalpha” value in test [1] is given as over 10. In test [2], the IC50 was found to be 30 nM.

Take `Cn1cc(-c2nc(N3CCC4(CCC(=O)N4CC4CC4)CC3)cnc2C#N)cn1` [Compound 1-1, 5-[1-(cyclopropylmethyl)-2-oxo-1,8-diazaspiro[4.5]dec-8-yl]-3-(1-methyl-1H-pyrazol-4-yl)pyrazine-2-carbonitrile]: in test [1], the “Selectivity versus PI3Kalpha” value is over 10. In addition, the IC50 in test [2] was determined as 5.4 nM.

For the compound `Cn1cc(-c2nc(N3CCC4(CC3)COC(=O)N4CC3(C)COC3)cnc2C#N)cn1` [Compound 1-2, 5-{1-[(3-methyloxetan-3-yl)methyl]-2-oxo-3-oxa-1,8-diazaspiro[4.5]dec-8-yl}-3-(1-methyl-1H-pyrazol-4-yl)pyrazine-2-carbonitrile], in test [1], the “Selectivity versus PI3Kalpha” value is recorded as over 10. For the same compound, in test [2], the 50% inhibitory concentration (IC50) turned out to be 45 nM.

Turning to `Cn1cc(-c2nc(N3CCC4(CC3)CNC(=O)N4CC3CC3)cnc2C#N)cn1` [Compound 1-3, 5-[1-(cyclopropylmethyl)-2-oxo-1,3,8-triazaspiro[4.5]dec-8-yl]-3-(1-methyl-1H-pyrazol-4-yl)pyrazine-2-carbonitrile], the “Selectivity versus PI3Kalpha” value in test [1] is over 10. In addition, in test [2], the IC50 was determined as 9.7 nM.

In the case of `CN(C)CCN1CC2(CCN(c3cnc(C#N)c(-c4cnn(C)c4)n3)CC2)N(CC2CC2)C1=O` [Compound 1-4, 5-{1-(cyclopropylmethyl)-3-[2-(dimethylamino)ethyl]-2-oxo-1,3,8-triazaspiro[4.5]dec-8-yl}-3-(1-methyl-1H-pyrazol-4-yl)pyrazine-2-carbonitrile], the “Selectivity versus PI3Kalpha” value in test [1] was over 10. Moreover, the IC50 in test [2] was determined as 10 nM.

Take `CC(N1C(=O)N(CCN(C)C)CC12CCN(c1cnc(C#N)c(-c3cnn(C)c3)n1)CC2)C(F)(F)F` (centres unmarked) [Compound 1-5, 5-{3-[2-(dimethylamino)ethyl]-2-oxo-1-(2,2,2-trifluoro-1-methylethyl)-1,3,8-triazaspiro[4.5]dec-8-yl}-3-(1-methyl-1H-pyrazol-4-yl)pyrazine-2-carbonitrile]: the “Selectivity versus PI3Kalpha” value in test [1] is over 10. Also, the IC50 in test [2] was determined as 7.2 nM.

For `Cn1cc(-c2nc(N3CCC4(CC3)CNS(=O)(=O)N4CC3CC3)cnc2C#N)cn1` [Compound 1-6, 5-[1-(cyclopropylmethyl)-2,2-dioxido-2-thia-1,3,8-triazaspiro[4.5]dec-8-yl]-3-(1-methyl-1H-pyrazol-4-yl)pyrazine-2-carbonitrile], in test [1], the “Selectivity versus PI3Kalpha” value was over 10. For the same compound, in test [2], the IC50 is 12 nM.

`COCCN1CC2(CCN(c3cnc(C#N)c(-c4cnn(C)c4)n3)CC2)N(CC2CC2)C1=O` [Compound 1-9, 5-[1-(cyclopropylmethyl)-3-(2-methoxyethyl)-2-oxo-1,3,8-triazaspiro[4.5]dec-8-yl]-3-(1-methyl-1H-pyrazol-4-yl)pyrazine-2-carbonitrile]: the “Selectivity versus PI3Kalpha” value in test [1] was over 10. Further, the IC50 in test [2] came out at 18 nM.

In the case of `Cn1cc(-c2nc(N3CCC4(CC3)CNC(=O)N4CC(F)(F)F)cnc2C#N)cn1` [Compound 1-11, 3-(1-methyl-1H-pyrazol-4-yl)-5-[2-oxo-1-(2,2,2-trifluoroethyl)-1,3,8-triazaspiro[4.5]dec-8-yl]pyrazine-2-carbonitrile], the “Selectivity versus PI3Kalpha” value in test [1] was over 10. In test [2], the IC50 was determined as 32 nM.

Turning to `N#Cc1ncc(N2CCC3(CC2)COC(=O)N3CC2CC2)nc1-c1cnn(C(F)F)c1` [Compound 1-12, 5-[1-(cyclopropylmethyl)-2-oxo-3-oxa-1,8-diazaspiro[4.5]dec-8-yl]-3-[1-(difluoromethyl)-1H-pyrazol-4-yl]pyrazine-2-carbonitrile], the “Selectivity versus PI3Kalpha” value in test [1] is listed as over 10. The IC50 in test [2] is 54 nM.

For the compound `C[C@@H]1CN(c2nc(-c3cnn(C)c3)cnc2C#N)CCN1C(=O)C1CC1` [Compound 1-13, 3-[(3R)-4-(cyclopropylcarbonyl)-3-methylpiperazin-1-yl]-5-(1-methyl-1H-pyrazol-4-yl)pyrazine-2-carbonitrile], the “Selectivity versus PI3Kalpha” value in test [1] is on record as over 10. Moreover, the IC50 in test [2] worked out at 190 nM.

As to `C[C@@H]1C[C@H]1C(=O)N1CCN(c2cnc(C#N)c(-c3cnn(C)c3)n2)C[C@H]1C` [Compound 1-14, 5-[(3R)-3-methyl-4-{[(1R,2R)-2-methylcyclopropyl]carbonyl}piperazin-1-yl]-3-(1-methyl-1H-pyrazol-4-yl)pyrazine-2-carbonitrile], in test [1], the “Selectivity versus PI3Kalpha” value is given as over 10. Also, in test [2], the IC50 was 8.9 nM.

Take `C[C@@H]1CN(c2cnc(C#N)c(-c3cnn(C)c3)n2)CCN1C(=O)C1CC1` [Compound 1-15, 5-[(3R)-4-(cyclopropylcarbonyl)-3-methylpiperazin-1-yl]-3-(1-methyl-1H-pyrazol-4-yl)pyrazine-2-carbonitrile]: the “Selectivity versus PI3Kalpha” value in test [1] was over 10. Besides, the IC50 in test [2] is 33 nM.

Turning to `C[C@@H]1CN(c2cnc(C#N)c(-c3cnn(C)c3)n2)CCN1C(=O)NC1CC1` [Compound 1-16, (2R)-4-[5-cyano-6-(1-methyl-1H-pyrazol-4-yl)pyrazin-2-yl]-N-cyclopropyl-2-methylpiperazine-1-carboxamide], the “Selectivity versus PI3Kalpha” value in test [1] is on record as over 10. Moreover, in test [2], the IC50 was 280 nM.

On to `C[C@@H]1C[C@H]1C(=O)N1CCN(c2cnc(C#N)c(-c3cnn(C(F)F)c3)n2)C[C@H]1C` [Compound 1-17, 3-[1-(difluoromethyl)-1H-pyrazol-4-yl]-5-[(3R)-3-methyl-4-{[(1R,2R)-2-methylcyclopropyl]carbonyl}piperazin-1-yl]pyrazine-2-carbonitrile], for which the “Selectivity versus PI3Kalpha” value in test [1] is recorded as over 10. Moreover, in test [2], the half-maximal inhibitory concentration (IC50) came out at 73 nM.

`[2H]C([2H])([2H])n1cc(-c2nc(N3CCN(C(=O)C4CC4)[C@H](C)C3)cnc2C#N)cn1` [Compound 1-18, 5-[(3R)-4-(cyclopropylcarbonyl)-3-methylpiperazin-1-yl]-3-[1-(~2~H_3_)methyl-1H-pyrazol-4-yl]pyrazine-2-carbonitrile]: the “Selectivity versus PI3Kalpha” value in test [1] is reported as over 10. In addition, in test [2], the IC50 came out at 16 nM.

Regarding `CC(C)C[C@@H]1CN(c2cnc(C#N)c(-c3cnn(C)c3)n2)CCN1C(=O)C1CC1` [Compound 1-19, 5-[(3R)-4-(cyclopropylcarbonyl)-3-(2-methylpropyl)piperazin-1-yl]-3-(1-methyl-1H-pyrazol-4-yl)pyrazine-2-carbonitrile], the “Selectivity versus PI3Kalpha” value in test [1] is reported as over 10. Besides, the IC50 in test [2] is 39 nM.
